Data from article PMC12820599, “Structural characterisation of nucleotide sugar short‐chain dehydrogenases/reductases from the thermophilic pseudomurein‐containing methanogen Methanothermobacter thermautotrophicus ΔH” (The Febs Journal, 2025).

How the values were obtained:
Format in all cases: binding
[1] = biological target: T1, Mth375 (Methanothermobacter thermautotrophicus, UniProt O26475); experiment: X-ray crystal structure ([…] Å); conditions: coenzyme site (Rossmann fold); no coenzyme added (co-purified); redox state not settled (NAD/NADH/NAD(H) printed); UDP bound
T1 construct: gene MTH_375; recombinant hexahistidine-tagged (pET100D), E. coli BL21-Rosetta 2; 332 residues seen; dimer; Cys131 (and Cys13 in Mth375_NU) modified by beta-mercaptoethanol

[2] = biological target: T2, Mth373 (Methanothermobacter thermautotrophicus, UniProt O26473); experiment: X-ray crystal structure ([…] and […] Å); conditions: 2.0 mM NADH added; coenzyme site of each monomer; printed as NADH, NAD(H) and NAD
T2 construct: gene MTH_373; recombinant hexahistidine-tagged, E. coli LOBSTR BL21*; 311-residue monomer; dimer

[3] = biological target: T1, Mth375; experiment: X-ray crystal structure ([…] and […] Å); conditions: co-crystallised with 1.0 mM UDP; active site; NAD(H) (6PNL) or AMP (6PMH) also bound; 21 °C
[4] = biological target: T2, Mth373; experiment: X-ray crystal structure ([…] Å); conditions: co-crystallised with 1.0 mM UDP and 2.0 mM NADH; active site of both monomers; pH 5.0; UDP also in one monomer of 9AR1

T1 sequence (O26475 entry or part of it): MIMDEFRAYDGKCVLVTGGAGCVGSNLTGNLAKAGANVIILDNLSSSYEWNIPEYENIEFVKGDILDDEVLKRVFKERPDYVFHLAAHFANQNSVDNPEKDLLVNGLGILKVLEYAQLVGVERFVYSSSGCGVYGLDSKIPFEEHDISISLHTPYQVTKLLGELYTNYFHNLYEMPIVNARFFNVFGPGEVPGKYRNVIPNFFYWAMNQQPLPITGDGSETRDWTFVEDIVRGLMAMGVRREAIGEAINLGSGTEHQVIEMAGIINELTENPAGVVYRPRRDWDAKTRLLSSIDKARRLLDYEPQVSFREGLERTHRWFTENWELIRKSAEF
T2 sequence (O26473 entry or part of it): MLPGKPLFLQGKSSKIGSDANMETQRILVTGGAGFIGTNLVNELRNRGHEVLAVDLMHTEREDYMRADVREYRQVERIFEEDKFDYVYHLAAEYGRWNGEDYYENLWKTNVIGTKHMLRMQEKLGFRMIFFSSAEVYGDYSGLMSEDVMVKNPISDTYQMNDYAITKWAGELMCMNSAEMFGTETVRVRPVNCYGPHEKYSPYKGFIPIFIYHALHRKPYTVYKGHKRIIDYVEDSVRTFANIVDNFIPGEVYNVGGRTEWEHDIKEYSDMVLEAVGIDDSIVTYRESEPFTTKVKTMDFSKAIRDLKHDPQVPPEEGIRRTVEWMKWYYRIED

Structure (SMILES)	X-ray crystal structure (2.01 Å) [1]	X-ray crystal structure (1.96 and 2.00 Å) [2]	X-ray crystal structure (2.01 and 2.30 Å) [3]	X-ray crystal structure (2.00 Å) [4]
NC(=O)C1=CN([C@@H]2O[C@H](COP(=O)(O)OP(=O)(O)OC[C@H]3O[C@@H](n4cnc5c(N)ncnc54)[C@H](O)[C@@H]3O)[C@@H](O)[C@H]2O)C=CC1 [NADH]	Mth375_NU contained a single NADH molecule	Both complexes have interpretable electron density for a molecule of NADH		
O=c1ccn([C@@H]2O[C@H](COP(=O)(O)OP(=O)(O)O)[C@@H](O)[C@H]2O)c(=O)[nH]1 [UDP]			A single molecule of UDP was bound to each Mth375 complex	A single molecule of UDP was bound to each active site of the Mth373_NU dimer
